Assay results taken from ChEMBL document CHEMBL1141735, “HIV-inhibitory and cytotoxic oligostilbenes from the leaves of Hopea malibato” (J Nat Prod, 1998).
Converted amounts (≈) assume the structure as drawn.

Columns and labels:
[1] = system: Human immunodeficiency virus; assay: Antiviral activity against HIV infected in human CEM-SS cells; assay type: functional, organism-based; conditions: Human immunodeficiency virus 1, CEM-SS
CEM-SS = assay: Cytotoxicity against human CEM-SS cells; assay type: cell-based

Row | EC50 [1] | Structure (SMILES) | IC50 (CEM-SS)
1 | 20 µg/mL (≈ 42.5 µM) | Oc1ccc([C@H]2c3c(O)cc(O)cc3[C@@H]3c4c(cc(O)cc4[C@H]2O)O[C@H]3c2ccc(O)cc2)cc1 [BALANOCARPOL] | 
2 | 46 µg/mL (≈ 49 µM) | Oc1ccc([C@H]2c3c(O)cc(O)cc3[C@@H]3c4c(cc(O)cc4[C@]2(O)[C@@]2(O)c4cc(O)cc5c4[C@@H](c4cc(O)cc(O)c4[C@@H]2c2ccc(O)cc2)[C@H](c2ccc(O)cc2)O5)O[C@H]3c2ccc(O)cc2)cc1 [DIBALANOCARPOL] | 
3 |  | Oc1ccc(-c2oc3cc(O)cc4c3c2-c2cc(O)cc(O)c2[C@H](c2ccc(O)cc2)[C@H]4O)cc1 [MALIBATOL A] | 13 µg/mL (≈ 27.8 µM)
4 |  | Oc1ccc([C@H]2c3c(O)cc(O)c(O)c3-c3c(-c4ccc(O)c(O)c4)oc4cc(O)cc(c34)[C@@H]2O)cc1 [MALIBATOL B] | 21 µg/mL (≈ 42 µM)
